Data taken from patent US10294234B2, “HIV inhibitor compounds” (priority 2017, dated 2019).
Where two headings read alike, the source gives them in different places.

System: HIV-1 (IIIB) in MT-4 cells
Assay: MT-4 HIV assay
Type: cell-based
Conditions: Human immunodeficiency virus 1, MT4, 120 h
Outline: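 Antiviral activity was read by Cell Titer Glo after a 5-day, 37 °C culture of MT-4 cells pre-infected with a 1:250 dilution of HIV-1 (IIIB). Compounds were tested as threefold dilution series in complete RPMI. Controls were no drug, mock infection and 5 uM AZT.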

[1] = HIV-1 (IIIB), MT-4 cells, 5 days, Cell Titer Glo, read-out: EC50

Row | Compound | EC50 [1] [nM] | EC50 [nM]
1 | COC(=O)N[C@H](C(=O)NN(Cc1c(F)cc(-c2nnc(C3CC3)s2)cc1F)C[C@H](O)[C@H](Cc1ccc(C#Cc2ccc(N3CC4CCC(C3)N4C3COC3)nc2)cc1)NC(=O)[C@@H](NC(=O)OC)C(C)(C)C(F)(F)F)C(C)(C)C [Example 76, Methyl ((5S,8S,9S,14S)-11-(4-(5-cyclopropyl-1,3,4-thiadiazol-2-yl)-2,6-difluorobenzyl)-9-hydroxy-15,15-dimethyl-8-(4-((6-(8-(oxetan-3-yl)-3,8-diazabicyclo[3.2.1]octan-3-yl)pyridin-3-yl)ethynyl)benzyl)-3,6,13-trioxo-5-(1,1,1-trifluoro-2-methylpropan-2-yl)-2-oxa-4,7,11,12-tetraazahexadecan-14-yl)carbamate] | 3.53 | 
2 | COC(=O)N[C@H](C(=O)NN(Cc1c(F)cc(-c2cnn(C(F)F)c2)cc1F)C[C@H](O)[C@H](Cc1ccc(C#Cc2ccc(N3CC4CCC(C3)N4C3COC3)nc2)cc1)NC(=O)[C@@H](NC(=O)OC)C(C)(C)C(F)(F)F)C(C)(C)CF [Example 80, Methyl ((5S,8S,9S,14S)-11-(4-(1-(difluoromethyl)-1H-pyrazol-4-yl)-2,6-difluorobenzyl)-16-fluoro-9-hydroxy-15,15-dimethyl-8-(4-((6-(8-(oxetan-3-yl)-3,8-diazabicyclo [3.2.1]octan-3-yl)pyridin-3-yl)ethynyl)benzyl)-3,6,13-trioxo-5-(1,1,1-trifluoro-2-methylpropan-2-yl)-2-oxa-4,7,11,12-tetraazahexadecan-14-yl)carbamate] | 3.13 | 
3 | COC(=O)N[C@H](C(=O)N[C@@H](Cc1ccc(C#Cc2ccc(N3CC4CCC(C3)N4C3COC3)nc2)cc1)[C@@H](O)CN(Cc1c(F)cc(C2COC2)cc1F)NC(=O)[C@@H](NC(=O)OC)C(C)(C)C(F)(F)F)C(C)(C)C(F)(F)F [Example 83, Methyl ((5S,8S,9S,14S)-11-(2,6-difluoro-4-(oxetan-3-yl)benzyl)-16,16,16-trifluoro-9-hydroxy-15,15-dimethyl-8-(4-((6-(8-(oxetan-3-yl)-3,8-diazabicyclo[3.2.1]octan-3-yl)pyridin-3-yl)ethynyl)benzyl)-3,6,13-trioxo-5-(1,1,1-trifluoro-2-methylpropan-2-yl)-2-oxa-4,7,11,12-tetraazahexadecan-14-yl)carbamate] | 17.2 | 
4 | COC(=O)N[C@H](C(=O)N[C@@H](Cc1ccc(C#Cc2ccc(N3CC4CCC(C3)N4C3COC3)nc2)cc1)[C@@H](O)CN(Cc1c(F)cc(-c2ccccn2)cc1F)NC(=O)[C@@H](NC(=O)OC)C(C)(C)C)C(C)(C)C [Example 84, Methyl ((5S,8S,9S,14S)-5-(tert-butyl)-11-(2,6-difluoro-4-(pyridin-2-yl)benzyl)-9-hydroxy-15,15-dimethyl-8-(4-((6-(8-(oxetan-3-yl)-3,8-diazabicyclo[3.2.1]octan-3-yl)pyridin-3-yl)ethynyl)benzyl)-3,6,13-trioxo-2-oxa-4,7,11,12-tetraazahexadecan-14-yl)carbamate] | 3.23 | 
5 | COC(=O)N[C@H](C(=O)NN(Cc1c(F)cc(-c2ccn(C3CC3)n2)cc1F)C[C@H](O)[C@H](Cc1ccc(C#Cc2ccc(N3CCN(C4COC4)CC3)nc2)cc1)NC(=O)[C@@H](NC(=O)OC)C(C)(C)C(F)(F)F)C(C)(C)C [Example 91, Methyl ((5S,8S,9S,14S)-11-(4-(1-cyclopropyl-1H-pyrazol-3-yl)-2,6-difluorobenzyl)-9-hydroxy-15,15-dimethyl-8-(4-((6-(4-(oxetan-3-yl)piperazin-1-yl)pyridin-3-yl)ethynyl)benzyl)-3,6,13-trioxo-5-(1,1,1-trifluoro-2-methylpropan-2-yl)-2-oxa-4,7,11,12-tetraazahexadecan-14-yl)carbamate] | 3.69 | 
6 | COC(=O)N[C@H](C(=O)N[C@@H](Cc1ccc(C#Cc2ccc(N3CCN(C4COC4)CC3)nc2)cc1)[C@@H](O)CN(Cc1c(F)cc(-c2ccn(C3CC3)n2)cc1F)NC(=O)[C@@H](NC(=O)OC)C(C)(C)C(F)(F)F)C(C)(C)C(F)(F)F [Example 92, Methyl ((5S,8S,9S,14S)-11-(4-(1-cyclopropyl-1H-pyrazol-3-yl)-2,6-difluorobenzyl)-16,16,16-trifluoro-9-hydroxy-15,15-dimethyl-8-(4-((6-(4-(oxetan-3-yl)piperazin-1-yl)pyridin-3-yl)ethynyl)benzyl)-3,6,13-trioxo-5-(1,1,1-trifluoro-2-methylpropan-2-yl)-2-oxa-4,7,11,12-tetraazahexadecan-14-yl)carbamate] | 3.72 | 
7 | COC(=O)N[C@H](C(=O)NN(Cc1c(F)cc(-c2ncccn2)cc1F)C[C@H](O)[C@H](Cc1ccc(C#Cc2ccc(N3CCN(C4COC4)CC3)nc2)cc1)NC(=O)[C@@H](NC(=O)OC)C(C)(C)C(F)(F)F)C(C)(C)C [Example 94, methyl ((5S,8S,9S,14S)-11-(2,6-difluoro-4-(pyrimidin-2-yl)benzyl)-9-hydroxy-15,15-dimethyl-8-(4-((6-(4-(oxetan-3-yl)piperazin-1-yl)pyridin-3-yl)ethynyl)benzyl)-3,6,13-trioxo-5-(1,1,1-trifluoro-2-methylpropan-2-yl)-2-oxa-4,7,11,12-tetraazahexadecan-14-yl)carbamate] | 2.57 | 
8 | COC(=O)N[C@H](C(=O)NN(Cc1c(F)cc(-c2ncccn2)cc1F)C[C@H](O)[C@H](Cc1ccc(C#Cc2ccc(N3CC4CCC(C3)N4C3COC3)nc2)cc1)NC(=O)[C@@H](NC(=O)OC)C(C)(C)C(F)(F)F)C(C)(C)C [Example 96, Methyl ((5S,8S,9S,14S)-11-(2,6-difluoro-4-(pyrimidin-2-yl)benzyl)-9-hydroxy-15,15-dimethyl-8-(4-((6-(8-(oxetan-3-yl)-3,8-diazabicyclo[3.2.1]octan-3-yl)pyridin-3-yl)ethynyl)benzyl)-3,6,13-trioxo-5-(1,1,1-trifluoro-2-methylpropan-2-yl)-2-oxa-4,7,11,12-tetraazahexadecan-14-yl)carbamate] | 2.33 | 
9 | COC(=O)N[C@H](C(=O)N[C@@H](Cc1ccc(C#Cc2ccc(N3CC4CCC(C3)N4C3COC3)nc2)cc1)[C@@H](O)CN(Cc1c(F)cc(-c2ccc(C(F)F)nc2)cc1F)NC(=O)[C@@H](NC(=O)OC)C(C)(C)C(F)(F)F)C(C)(C)C(F)(F)F [Example 100, Methyl ((5S,8S,9S,14S)-11-(4-(6-(difluoromethyl)pyridin-3-yl)-2,6-difluorobenzyl)-16,16,16-trifluoro-9-hydroxy-15,15-dimethyl-8-(4-((6-(8-(oxetan-3-yl)-3,8-diazabicyclo[3.2.1]octan-3-yl)pyridin-3-yl)ethynyl)benzyl)-3,6,13-trioxo-5-(1,1,1-trifluoro-2-methylpropan-2-yl)-2-oxa-4,7,11,12-tetraazahexadecan-14-yl)carbamate] | 7.96 | 
10 | COC(=O)N[C@H](C(=O)N[C@@H](Cc1ccc(C#Cc2ccc(N3CCN(C4CCOCC4)CC3)nc2)cc1)[C@@H](O)CN(Cc1c(F)cc(-c2ccn(C(F)F)n2)cc1F)NC(=O)[C@@H](NC(=O)OC)C(C)(C)C(F)(F)F)C(C)(C)C(F)(F)F [Example 104, Methyl ((5S,8S,9S,14S)-11-(4-(1-(difluoromethyl)-1H-pyrazol-3-yl)-2,6-difluorobenzyl)-16,16,16-trifluoro-9-hydroxy-15,15-dimethyl-3,6,13-trioxo-8-(4-((6-(4-(tetrahydro-2H-pyran-4-yl)piperazin-1-yl)pyridin-3-yl)ethynyl)benzyl)-5-(1,1,1-trifluoro-2-methylpropan-2-yl)-2-oxa-4,7,11,12-tetraazahexadecan-14-yl)carbamate] | 4.97 | 
11 | COC(=O)N[C@H](C(=O)N[C@@H](Cc1ccc(C#Cc2ccc(N3CC4CCC(C3)N4CC3(C)COC3)nc2)cc1)[C@@H](O)CN(Cc1c(F)cc(-c2cnn(C(F)F)c2)cc1F)NC(=O)[C@@H](NC(=O)OC)C(C)(C)C(F)(F)F)C(C)(C)C(F)(F)F [Example 108, Methyl ((5S,8S,9S,14S)-11-(4-(1-(difluoromethyl)-1H-pyrazol-4-yl)-2,6-difluorobenzyl)-16,16,16-trifluoro-9-hydroxy-15,15-dimethyl-8-(4-((6-(8-((3-methyloxetan-3-yl)methyl)-3,8-diazabicyclo[3.2.1]octan-3-yl)pyridin-3-yl)ethynyl)benzyl)-3,6,13-trioxo-5-(1,1,1-trifluoro-2-methylpropan-2-yl)-2-oxa-4,7,11,12-tetraazahexadecan-14-yl)carbamate] | 7.23 | 
12 | COC(=O)N[C@H](C(=O)N[C@@H](Cc1ccc(C#Cc2ccc(N3CC4CCC(C3)N4CC3CNC3)nc2)cc1)[C@@H](O)CN(Cc1c(F)cc(-c2cnn(C(F)F)c2)cc1F)NC(=O)[C@@H](NC(=O)OC)C(C)(C)C(F)(F)F)C(C)(C)C(F)(F)F [Example 109, Methyl ((5S,8S,9S,14S)-8-(4-((6-(8-(azetidin-3-ylmethyl)-3,8-diazabicyclo[3.2.1]octan-3-yl)pyridin-3-yl)ethynyl)benzyl)-11-(4-(1-(difluoromethyl)-1H-pyrazol-4-yl)-2,6-difluorobenzyl)-16,16,16-trifluoro-9-hydroxy-15,15-dimethyl-3,6,13-trioxo-5-(1,1,1-trifluoro-2-methylpropan-2-yl)-2-oxa-4,7,11,12-tetraazahexadecan-14-yl)carbamate] | 59.7 | 
13 | COC(=O)N[C@H](C(=O)N[C@@H](Cc1ccc(C#Cc2ccc(N3CC4CCC(C3)N4CC3CN(C(=O)OC(C)(C)C)C3)nc2)cc1)[C@@H](O)CN(Cc1c(F)cc(-c2cnn(C(F)F)c2)cc1F)NC(=O)[C@@H](NC(=O)OC)C(C)(C)C(F)(F)F)C(C)(C)C(F)(F)F [Example 110, tert-butyl 3-((3-(5-((4-((2S,3S)-4-(1-(4-(1-(difluoromethyl)-1H-pyrazol-4-yl)-2,6-difluorobenzyl)-2-((S)-4,4,4-trifluoro-2-((methoxycarbonyl)amino)-3,3-dimethylbutanoyl)hydrazinyl)-3-hydroxy-2-((S)-4,4,4-trifluoro-2-((methoxycarbonyl)amino)-3,3-dimethylbutanamido)butyl)phenyl)ethynyl)pyridin-2-yl)-3,8-diazabicyclo[3.2.1]octan-8-yl)methyl)azetidine-1-carboxylate] |  | 30.8
